Reference: PubChem BioAssay (NCI)
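Test compounds were applied to cells in 96-well plates for 48 hours at 5 doses. The concentration for 50% growth inhibition is given as GI50. At the TGI there is no net growth.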

Assays:
Experiment in all cases: growth of human tumour cells (NCI), 48 h
HOP-62 NSCLC = test system: HOP-62 NSCLC
SK-MEL-28 melanoma = test system: SK-MEL-28 melanoma
UO-31 renal = test system: UO-31 renal
COLO 205 colon = test system: COLO 205 colon
HL-60(TB) leukemia = test system: HL-60(TB) leukemia
HCT-15 colon = test system: HCT-15 colon
UACC-257 melanoma = test system: UACC-257 melanoma
BT-549 breast = test system: BT-549 breast
TK-10 renal = test system: TK-10 renal
MDA-N = test system: MDA-N

SMILES	TGI (HOP-62 NSCLC) [µM]	TGI (SK-MEL-28 melanoma) [µM]	TGI (UO-31 renal) [µM]	TGI (COLO 205 colon) [µM]	TGI (HL-60(TB) leukemia) [µM]	TGI (HCT-15 colon) [µM]	TGI (UACC-257 melanoma) [µM]	TGI (BT-549 breast) [µM]	TGI (TK-10 renal) [µM]	TGI (MDA-N) [µM]	GI50 (HOP-62 NSCLC) [µM]	GI50 (SK-MEL-28 melanoma) [µM]	GI50 (UO-31 renal) [µM]	GI50 (COLO 205 colon) [µM]	GI50 (BT-549 breast) [µM]	GI50 (TK-10 renal) [µM]	GI50 (HL-60(TB) leukemia) [µM]	GI50 (HCT-15 colon) [µM]	GI50 (UACC-257 melanoma) [µM]
COc1c2ccoc2c(S(=O)(=O)Nc2ccc(Cl)cc2)c2oc(C)cc(=O)c12	> 100	> 100	> 100	> 100	> 31.6	> 100	> 100	–	–	–	–	–	–	–	–	–	–	–	–
Cc1onc(-c2c(F)cccc2Cl)c1C(=O)N[C@@H]1C(=O)N2[C@@H]1SC(C)(C)[C@@H]2C(=O)O	> 100	> 100	67.4	> 100	–	> 100	> 100	> 100	> 100	> 100	–	–	–	–	–	–	–	–	–
FC(F)(F)C1=NC(=NNc2nnc(-c3ccccc3)c(-c3ccccc3)n2)N=C(C(F)(F)F)C1	> 86.7	> 100	29.1	61.4	37.1	> 100	> 100	–	–	–	–	–	–	–	–	–	–	–	–
O=C(/N=C/c1c(O)c2ccccc2oc1=O)NC1CCCCC1	> 100	> 100	> 100	> 100	> 100	> 100	> 100	–	> 100	–	–	–	–	–	–	–	–	–	–
CCOC(=O)[C@H]1C[C@]23CN(C(=O)OC(C)(C)C)CC[C@H]2CCC2(SCCCS2)[C@@H]3N1C	> 100	> 100	> 100	> 100	47.3	> 100	77.5	> 100	81.2	> 100	–	–	–	–	–	–	–	–	–
OC1(c2ccc3ccccc3c2)c2ccc3ccccc3c2C2=NCCN21 (stereo not given)	47.3	> 100	> 100	> 100	> 100	> 100	> 100	> 100	> 100	> 100	–	–	–	–	–	–	–	–	–
Cc1ccc(S(=O)(=O)NCCSS(=O)(=O)c2ccc(C)cc2)cc1	–	76.6	61.7	> 100	–	37.8	> 100	–	> 100	56.8	–	–	–	–	–	–	–	–	–
CC[N+](CC)(CC)/C(=N/S(=O)(=O)c1cc(C)c(Cl)cc1S)[N-]S(=O)(=O)c1ccc(Cl)cc1	> 100	> 100	> 100	–	> 100	> 100	> 100	–	> 100	> 100	–	–	–	–	–	–	–	–	–
C=C1C(=O)OC2/C=C(\C)CC(O)/C=C(/CO)CC(OC(=O)/C(C)=C/C)C12 (stereo not given)	246	41.1	439	96.8	34.9	151	202	–	–	–	–	–	–	–	–	–	–	–	–
ClCC1(CCl)COC1	–	> 100	> 100	> 100	> 100	> 100	> 100	–	> 100	> 100	–	–	–	–	–	–	–	–	–
C[C@H](O)C(=O)SC[C@H](NC(=O)CC[C@@H](N)C(=O)O)C(=O)NCC(=O)O	> 100	> 100	> 100	> 100	–	> 100	> 100	–	> 100	–	–	–	–	–	–	–	–	–	–
CCCc1ccc(OCC(=O)N/N=C/c2c(-c3ccccc3)[nH]c3ccccc23)cc1	37.8	> 100	> 100	14.3	23.8	59.8	33.7	34	63.8	–	–	–	–	–	–	–	–	–	–
CCOc1cc(NC(C)=O)ccc1C(=O)NN1C(=O)CSC1c1ccc(O)c(OC)c1 (stereo not given)	> 100	> 100	29.5	> 100	> 100	> 100	> 100	98.6	39.3	> 100	–	–	–	–	–	–	–	–	–
CN(C)CCC(C(=O)C(C)(C)C)c1ccccn1 (stereo not given)	> 100	> 100	> 100	> 100	> 100	> 100	> 100	> 100	> 100	> 100	–	–	–	–	–	–	–	–	–
C[C@]12CC[C@H](O)CC1=CC[C@@H]1[C@@H]2CC[C@]2(C)C(=O)CC[C@@H]12	–	> 100	> 100	> 100	–	> 100	> 100	> 100	> 100	> 100	–	–	–	–	–	–	–	–	–
C=CCC1=CC2(OC)C(=O)C(OC)(OC)C1C1C(OC)(OC)C(=O)C(OC)=CC12CC=C (stereo not given)	> 100	> 100	> 100	> 100	> 100	> 100	> 100	> 100	> 100	> 100	–	–	–	–	–	–	–	–	–
CO[C@]12C[C@H](CNC(=O)c3cc(Br)c(Br)[nH]3)O[C@H]1NC(=O)N2	> 100	> 100	> 100	> 100	> 100	> 100	> 100	> 100	> 100	–	–	–	–	–	–	–	–	–	–
CC(O)=NC(Cc1ccc2ccccc2c1)C(O)=NC(Cc1ccc(Cl)cc1)C(O)=NC(Cc1c[nH]c2ccccc12)C(O)=NC(CO)C(O)=NC(Cc1ccc(O)cc1)C(O)=NC(CCCN=C(N)N)C(O)=NC(CC(C)C)C(O)=NC(CCCN=C(N)N)C(=O)N1CCCC1C(O)=NC(C)C(=N)O (stereo not given)	> 100	–	63.1	> 100	> 100	> 100	> 100	> 100	> 100	> 100	–	–	–	–	–	–	–	–	–
NC(N)=N/N=C/c1ccc(O)c(C(=O)O)c1	> 100	> 100	> 100	> 100	–	> 100	> 100	> 100	> 100	> 100	–	–	–	–	–	–	–	–	–
COc1ccc(-n2cc(-c3ccc(OC)c(OC)c3)nc2SCc2ccccc2)cc1Cl	> 100	> 100	> 100	45.4	37.7	> 100	38.3	42.5	> 100	–	28.3	27.4	15.2	19	14.9	29.5	12.9	20	7.23
COc1cc(NCc2ccc3n2-c2ccccc2OC3)cc(OC)c1OC	> 100	> 100	60	25.5	57.2	> 100	64.1	67.3	> 100	72.4	–	–	–	–	–	–	–	–	–
Oc1ccc2ccccc2c1Cc1c(O)ccc2ccccc12	41.4	40.7	32.2	36.5	38.7	32.7	48.9	33.6	48.9	28.3	–	–	–	–	–	–	–	–	–
